According to US7265152B2 (ViroPharma Incorporated, priority 2002, dated 2007):
Like-named read-outs stand apart in the source and are kept apart here.

Key:
[1] = system: HCV replicon (BB7 sequence) in Huh-7-Clone A cells; experiment: HCV replicon assay: ELISA of NS5A protein in replicon-containing cells (Inhibition of Viral RNA Replication); format: cell-based
Procedure, shortened: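 EC50 taken from an 8-point serially diluted dose curve, with NS5A level as read-out: fixed cells probed with primary monoclonal and HRP-conjugated secondary, TMB developed 30 min, OD 650 nm. Compound exposure 72 h in Huh-7-Clone A replicon cells (BB7 sequence).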

[2] = target: T1, HCV NS5B (Hepatitis C virus genotype 1b, UniProt Q9WMX2); experiment: Inhibition of viral RNA-dependent RNA polymerase (RdRp), in vitro biochemical assay; parameters: species or system HCV genotype 1b virus (BB7); conditions: HCV NS5B RdRp, BB7 genotype 1b; read-out: HCV pol-BB7 IC50
T1 construct: fusion protein, of which the carboxyl terminal 21 amino acids were removed to enhance its solubility; His tag (GSHHHHHH); made in house; host or cells: E. coli
Procedure, shortened: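 IC50 values are the concentrations that halve in vitro RNA synthesis by HCV NS5B polymerase. The enzyme was a C-terminally truncated (Δ21), His-tagged genotype 1b (BB7 consensus) protein purified from E. coli.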

[3] = Hepatitis C virus, ranges of EC50 in HCV replicon assay, read-out: Replicon

CNC(=O)c1c(-c2ccc(F)cc2)oc2cc(N3CCC(O)CC3)c(OC(C)C)cc12 [Example 140, 2-(4-Fluoro-phenyl)-6-(4-hydroxy-piperidin-1-yl)-5-isopropoxy-benzofuran-3-carboxylic acid methylamide]
EC50 [1, 3]: < 10 µM
IC50 [2]: 0.5 to 5 µM

CNC(=O)c1c(-c2ccc(F)cc2)oc2cc(N3CCCC(O)C3)c(OC(C)C)cc12 (stereo not shown) [Example 141, 2-(4-Fluoro-phenyl)-6-(3-hydroxy-piperidin-1-yl)-5-isopropoxy-benzofuran-3-carboxylic acid methylamide]
EC50 [1, 3]: < 10 µM
IC50 [2]: 0.5 to 5 µM

CNC(=O)c1c(-c2ccc(F)cc2)oc2cc(S(=O)(=O)N3CCOCC3)c(OC(C)C)cc12 [Example 142, 2-(4-Fluoro-phenyl)-5-isopropoxy-6-(morpholine-4-sulfonyl)-benzofuran-3-carboxylic acid methylamide]
EC50 [1, 3]: < 10 µM
IC50 [2]: ≤ 0.5 µM

CNC(=O)c1c(-c2ccc(F)cc2)oc2cc(S(=O)(=O)NC)c(OC(C)C)cc12 [Example 143, 2-(4-Fluoro-phenyl)-5-isopropoxy-6-methylsulfamoyl-benzofuran-3-carboxylic acid methylamide]
EC50 [1, 3]: > 30 µM
IC50 [2]: ≤ 0.5 µM

CNC(=O)c1c(-c2ccc(F)cc2)oc2cc(S(=O)(=O)N(C)C)c(OC(C)C)cc12 [Example 144, 6-Dimethylsulfamoyl-2-(4-fluoro-phenyl)-5-isopropoxy-benzofuran-3-carboxylic acid methylamide]
EC50 [1, 3]: < 30 µM
IC50 [2]: ≤ 0.5 µM

CNC(=O)c1c(-c2ccc(F)cc2)oc2cc(NS(=O)(=O)C(C)C)c(OC(C)C)cc12 [Example 145, 2-(4-Fluoro-phenyl)-5-isopropoxy-6-(propane-2-sulfonylamino)-benzofuran-3-carboxylic acid methylamide]
EC50 [1, 3]: < 10 µM
IC50 [2]: 0.5 to 5 µM

CNC(=O)c1c(-c2ccc(F)cc2)oc2cc(C(N)=O)c(OC(C)C)cc12 [Example 146, 2-(4-Fluoro-phenyl)-5-isopropoxy-benzofuran-3,6-dicarboxylic acid 6-amide 3-methylamide]
EC50 ([1]; ranges of EC50 in HCV replicon assay, read-out: Replicon): > 30 µM
IC50 [2]: 0.5 to 5 µM

CNC(=O)c1c(-c2ccc(F)cc2)oc2cc(-c3cncnc3)c(OC(C)C)cc12 [Example 147, 2-(4-Fluoro-phenyl)-5-isopropoxy-6-pyrimidin-5-y1-benzofuran-3-carboxylic acid mehtylamide]
EC50 [1, 3]: < 10 µM
IC50 [2]: ≤ 0.5 µM

CNC(=O)c1c(-c2ccc(F)cc2)oc2cc(NC(C)(C)C)c(OC(C)C)cc12 [Example 148, 6-tert-Butylamino-2-(4-fluoro-phenyl)-5-isopropoxy-benzofuran-3-carboxylic acid methylamide]
EC50 [1, 3]: < 10 µM
IC50 [2]: ≤ 0.5 µM

CNC(=O)c1c(-c2ccc(F)cc2)oc2cc(S(N)(=O)=O)c(OC(C)C)cc12 [Example 149, 2-(4-Fluoro-phenyl)-5-isopropoxy-6-sulfamoyl-benzofuran-3-carboxylic acid methylamide]
EC50 [1, 3]: > 30 µM
IC50 [2]: 5 to 30 µM

CNC(=O)c1c(-c2ccc(F)cc2)oc2cc(S(=O)(=O)NC3CCC3)c(OC(C)C)cc12 [Example 150, 6-Cyclobutylsulfamoyl-2-(4-fluoro-phenyl)-5-isopropoxy-benzofuran-3-carboxylic acid methylamide]
EC50 [1, 3]: < 30 µM
IC50 [2]: 0.5 to 5 µM

CNC(=O)c1c(-c2ccc(F)cc2)oc2cc(-c3ccco3)c(OC(C)C)cc12 [Example 151, 2-(4-Fluoro-phenyl)-6-furan-2-yl-5-isopropoxy-benzofuran-3-carboxylic acid methylamide]
EC50 [1, 3]: < 30 µM
IC50 [2]: ≤ 0.5 µM

CNC(=O)c1c(-c2ccc(F)cc2)oc2cc(-c3ccoc3)c(OC(C)C)cc12 [Example 152, 2-(4-Fluoro-phenyl)-6-furan-3-yl-5-isopropoxy-benzofuran-3-carboxylic acid methylamide]
EC50 [1, 3]: < 10 µM
IC50 [2]: ≤ 0.5 µM

CNC(=O)c1c(-c2ccc(F)cc2)oc2cc(-c3cccnc3)c(OC(C)C)cc12 [Example 153, 2-(4-Fluoro-phenyl)-5-isopropoxy-6-pyridin-3-yl-benzofuran-3-carboxylic acid methylamide]
EC50 [1, 3]: < 10 µM
IC50 [2]: ≤ 0.5 µM

CNC(=O)c1c(-c2ccc(F)cc2)oc2cc(S(=O)(=O)N3CCCC3)c(OC(C)C)cc12 [Example 154, 2-(4-Fluoro-phenyl)-5-isopropoxy-6-(pyrrolidine-1-sulfonyl)-benzofuran-3-carboxylic acid methylamide]
EC50 [1, 3]: < 10 µM
IC50 [2]: ≤ 0.5 µM

CNC(=O)c1c(-c2ccc(F)cc2)oc2cc(S(=O)(=O)NC3CC3)c(OC(C)C)cc12 [Example 155, 6-Cyclopropylsulfamoyl-2-(4-fluoro-phenyl)-5-isopropoxy-benzofuran-3-carboxylic acid methylamide]
EC50 [1, 3]: < 10 µM
IC50 [2]: ≤ 0.5 µM

CCS(=O)(=O)Nc1cc2oc(-c3ccc(F)cc3)c(C(=O)NC)c2cc1OC(C)C [Example 156]
EC50 ([1]; Hepatitis C virus, read-out: Replicon (μM)): < 10 µM
IC50 [2]: ≤ 0.5 µM

C=Cc1cc2oc(-c3ccc(F)cc3)c(C(=O)NC)c2cc1OC(C)C [Example 157, 2-(4-Fluoro-phenyl)-5-isopropoxy-6-vinyl-benzofuran-3-carboxylic acid methylamide]
EC50 [1, 3]: < 10 µM
IC50 [2]: ≤ 0.5 µM

CNC(=O)c1c(-c2ccc(F)cc2)oc2cc(OC)c(OC(C)C)cc12 [Example 158, 2-(4-Fluoro-phenyl)-5-isopropoxy-6-methoxy-benzofuran-3-carboxylic acid methylamide]
EC50 [1, 3]: < 10 µM
IC50 [2]: ≤ 0.5 µM

CNC(=O)c1c(-c2ccc(F)cc2)oc2cc(-c3c(C)noc3C)c(OC(C)C)cc12 [Example 159, 6-(3,5-Dimethyl-isoxazol-4-yl)-2-(4-fluoro-phenyl)-5-isopropoxy-benzofuran-3-carboxylic acid methylamide]
EC50 [1, 3]: < 1 µM
IC50 [2]: ≤ 0.5 µM

CNC(=O)c1c(-c2ccc(F)cc2)oc2cc(C=O)c(OC(C)C)cc12 [Example 160, 2-(4-Fluoro-phenyl)-6-formyl-5-isopropoxy-benzofuran-3-carboxylic acid methylamide]
EC50 [1, 3]: < 30 µM
IC50 [2]: ≤ 0.5 µM

CNC(=O)c1c(-c2ccc(F)cc2)oc2cc(-c3ccc(F)nc3)c(OC(C)C)cc12 [Example 161, 2-(4-Fluoro-phenyl)-6-(6-fluoro-pyridin-3-yl)-5-isopropoxy-benzofuran-3-carboxylic acid methylamide]
EC50 [1, 3]: < 10 µM
IC50 [2]: ≤ 0.5 µM

CNC(=O)c1c(-c2ccc(F)cc2)oc2cc(CNS(C)(=O)=O)c(OC(C)C)cc12 [Example 162, 2-(4-Fluoro-phenyl)-5-isopropoxy-6-(methanesulfonylamino-methyl)-benzofuran-3-carboxylic acid methylamide]
EC50 [1, 3]: < 10 µM
IC50 [2]: 0.5 to 5 µM

CNC(=O)c1c(-c2ccc(F)cc2)oc2cc(N(C3CCCC3)S(C)(=O)=O)c(OC(C)C)cc12 [Example 163, 6-(Cyclopentyl-methanesulfonyl-amino)-2-(4-fluoro-phenyl)-5-isopropoxy-benzofuran-3-carboxylic acid methylamide]
EC50 [1, 3]: < 1 µM
IC50 [2]: ≤ 0.5 µM

CNC(=O)c1c(-c2ccc(F)cc2)oc2cc(N(CCO)S(C)(=O)=O)c(OC(C)C)cc12 [Example 164, 2-(4-Fluoro-phenyl)-6-[(2-hydroxy-ethyl)-methanesulfonyl-amino]-5-isopropoxy-benzofuran-3-carboxylic acid methylamide]
EC50 [1, 3]: < 10 µM
IC50 [2]: ≤ 0.5 µM

CNC(=O)c1c(-c2ccc(F)cc2)oc2cc(OC)c(O)cc12 [Example 165, 2-(4-Fluoro-phenyl)-5-hydroxy-6-methoxy-benzofuran-3-carboxylic acid methylamide]
EC50 [1, 3]: > 30 µM
IC50 [2]: 5 to 30 µM

CCOc1cc2c(C(=O)NC)c(-c3ccc(F)cc3)oc2cc1N1CCOCC1 [Example 166, 5-Ethoxy-2-(4-fluoro-phenyl)-6-morpholin-4-yl-benzofuran-3-carboxylic acid methylamide]
EC50 [1, 3]: < 10 µM
IC50 [2]: 0.5 to 5 µM

CNC(=O)c1c(-c2ccc(F)cc2)oc2cc(N3CCOCC3)c(OCc3ccc(F)cc3)cc12 [Example 167, 5-(4-Fluoro-benzyloxy)-2-(4-fluoro-phenyl)-6-morpholin-4-yl-benzofuran-3-carboxylic acid methylamide]
EC50 [1, 3]: < 1 µM
IC50 [2]: 0.5 to 5 µM

CNC(=O)c1c(-c2ccc(F)cc2)oc2cc(-c3cnco3)c(OC(C)C)cc12 [Example 168, 2-(4-Fluoro-phenyl)-5-isopropoxy-6-oxazol-5-yl-benzofuran-3-carboxylic acid methylamide]
EC50 [1, 3]: < 10 µM
IC50 [2]: ≤ 0.5 µM

CNC(=O)c1c(-c2ccc(F)cc2)oc2cc(S(=O)(=O)N3CCC(O)CC3)c(OC(C)C)cc12 [Example 169, 2-(4-Fluoro-phenyl)-6-(4-hydroxy-piperidine-1-sulfonyl)-5-isopropoxy-benzofuran-3-carboxylic acid methylamide]
EC50 [1, 3]: < 1 µM
IC50 [2]: ≤ 0.5 µM

CNC(=O)c1c(-c2ccc(F)cc2)oc2cc(N3CCC(F)(F)CC3)c(OC(C)C)cc12 [Example 170, 6-(4,4-Difluoro-piperidin-1-yl)-2-(4-fluoro-phenyl)-5-isopropoxy-benzofuran-3-carboxylic acid methylamide]
EC50 [1, 3]: < 1 µM
IC50 [2]: 5 to 30 µM

CNC(=O)c1c(-c2ccc(F)cc2)oc2cc(N3CCC(F)CC3)c(OC(C)C)cc12 [Example 171, 2-(4-Fluoro-phenyl)-6-(4-fluoro-piperidin-1-yl)-5-isopropoxy-benzofuran-3-carboxylic acid methylamide]
EC50 [1, 3]: < 1 µM
IC50 [2]: 0.5 to 5 µM
